Experimental data: patent publication US10745701B2, “Methods of identifying and treating poor-prognosis cancers” (The Trustees of Princeton University, priority 2007, dated 2020)
Blank lines part the entries; values can stand above or below the molecule they belong to.

Tests used:
[1] = test system: LM2 cells; assay: Chemoresistance clonogenic assay; assay type: cell-based, human; settings: for chemoresistance on ALDH3A1 overexpression in MTDH knockdown cells: constitutive ALDH3A1 overexpression in MTDH knockdown LM2 cells; for sensitivity of LM2 cells on ALDH3A1 knockdown: inducible ALDH3A1 shRNA induced by doxycycline
Procedure: The infected cells were selected with 0.5 μg/ml puromycin or/and 0.4 mg/ml hygromycin. Double knockdown of MET and ALDH3A1 was achieved by simultaneous infection of MET and ALDH3A1 targeting viruses with different drug selection markers. MTDH, LAPTM4b, PTDSS1, SDC2, TSPYL5, and UQCRB overexpression was achieved using the retroviral expression vector pBabe-hygro. Viruses were generated and used to infect target cells as above and the infected cells were selected with 0.4 mg/ml hygromycin. For combinational overexpression of genes at 8q22, the viruses generated from the expression vector pBabe-puro containing each of the four genes were concentrated by ultracentrifugation and pooled for infection. Northern blots, qRT-PCR, and/or Western blots were performed to validate the knockdown or overexpression of target genes.
To generate an inducible knockdown of ALDH3A1, a retroviral vector expressing the Tet repressor (TetR) was constructed by cloning the TetR coding sequence from the pcDNA6/TR plasmid (Invitrogen) to pQCXIH (Clontech). LM2 cell line with stable expression of TetR was generated by transduction with retroviruses produced from pQCXIH-TetR. The cell line was then infected with retroviruses generated from the pRSMX vector^77 containing the ALDH3A1-targeting shRNA sequence. The expression of a shRNA against ALDH3A1 is under the control of the histone H1 promoter and two adjacent tetracycline operators (TetOs). The bacterial Tet repressor (TetR) is constitutively expressed from the integrated pQCXIH-TetR in this cell line and suppresses the expression of shRNA by binding to TetOs. In the presence of […] doxycycline in the media, TetR is released from the TetOs and allow the transcription of ALDH3A1 shRNA and thus the repression of ALDH3A1 expression. The pBabe-hygro vector was used to overexpress ALDH3A1.
Cancer cells with genetic modification of MTDH and/or ALDH3A1 and the vector control were seeded into a 48-well plate (10^4 cells/well). After 24 h, the cells were treated with apoptosis-inducing chemicals for the indicated time (20, 50 or 100 nM paclitaxel, EMD Biosciences, 24 h; 50, 100 or 200 μM doxorubicin, EMD Biosciences, 24 h; 40 μM cisplatin, EMD Biosciences, 2 h; 200 or 500 μM H2O2, Fisher Scientific, 2 h) or 10 mJ/cm^2 UV irradiation. After culturing in drug-free DMEM medium for another 48 h, the surviving cells were quantified by clonogenic assay with the standard procedure for long-term recovery. Briefly, an aliquot of the harvested cell population was seeded onto a 10 cm dish. Crystal violet staining was used to count the colonies after 10-day culture in DMEM medium. The colony numbers from untreated cells of the same line were used to normalize the experimental data. In the HMVEC-L co-culture assays, HMVEC-L cells were grown to confluence in the 48-well plates with supplemented EGM-2 medium (Lonza) before seeding of cancer cells. Because HMVEC-L cells could not form colonies in the DMEM medium (data not shown), the rest of the assay was performed following the standard procedure.

[2] = test system: LM2 cells; assay: Drug uptake and retention analysis of radiolabeled paclitaxel and doxorubicin; settings: for effect of MTDH on drug uptake or retention: cancer cells with modified MTDH expression (LM2 knockdown, SCP28 overexpression); for kinetics of uptake and retention: parent LM2 cells, pilot study, 50 nM [H3]-paclitaxel or 100 nM [C14]-doxorubicin
Procedure: Cells were seeded into 12 well plates at densities of 3×10^5 per well in 1 ml of culture medium. One day after seeding, the medium was replaced with 1 ml of medium containing 50 nM [H^3]-Paclitaxel (Moravek, 2 Ci/mmol) or 100 nM [C^14]-Doxorubicin (GE HealthCare, 56 mCi/mmol). […] For the uptake study, cells were harvested immediately after incubation with drug-containing medium. For the retention study, cells were incubated with drug-containing medium for 4 h, followed by incubation in 2 ml drug-free medium and then harvested. After washing with cold PBS, the pelleted cells were lysed with 200 ul of 0.1N NaOH. An aliquot (5 ul) was used to determine the protein concentration by Bradford assay (Sigma-Aldrich) with BSA as standards. The remaining cell lysates were transferred to scintillation count vials and mixed with 4 ml ECoScint scintillation fluid (National Diagnostics) and the radioactivity was measured by liquid scintillation counting. A standard curve was established and used to calculate the amount of cell-associated drug.

[3] = test system: LM2 cells; assay: In vivo chemoresistance assay, subcutaneous LM2 xenograft tumors; design: species or system nude mice
Procedure: MTDH-knockdown or control LM2 cells (1×10^6 cells/0.1 ml in a 50:50 solution of PBS and Matrigel) were injected subcutaneously into each flank of nude mice. The mice were treated with chemotherapeutic drugs (20 mg/kg paclitaxel or 5 mg/kg doxorubicin) or the corresponding drug vehicles (Cremophor for paclitaxel and saline for doxorubicin) twice a week by intravenous delivery a week after the tumor xenografting. Six mice (12 tumors) were used for each group. Tumor growth was monitored twice a week by size measurement. Both maximum (L) and minimum (W) diameters of the tumor were measured using a slide caliper, and the tumor volume was calculated as […]LW^2/6. Tumor growth was normalized to that before drug treatment.

- kinetics of uptake and retention [2]: biphasic kinetics
Compound: COc1cccc2c1C(=O)c1c(O)c3c(c(O)c1C2=O)C[C@@](O)(C(=O)CO)C[C@@H]3O[C@H]1C[C@H](N)[C@H](O)[C@H](C)O1 [doxorubicin]
- chemoresistance on MET knockdown ([1]; MET knockdown in LM2 cells, weaker than MTDH knockdown): significant reduction of chemoresistance
- chemoresistance on ALDH3A1 overexpression in MTDH knockdown cells [1]: partially restore
- sensitivity of LM2 cells on ALDH3A1 knockdown [1]: more sensitive
- effect of MTDH on drug uptake or retention [2]: does not decrease drug uptake or retention

Compound: CC(=O)O[C@H]1C(=O)[C@@]2(C)[C@H]([C@H](OC(=O)c3ccccc3)[C@]3(O)C[C@H](OC(=O)[C@H](O)[C@@H](NC(=O)c4ccccc4)c4ccccc4)C(C)=C1C3(C)C)[C@]1(OC(C)=O)CO[C@@H]1C[C@@H]2O [paclitaxel]
- tumor size relative to pre-treatment size ([3]; MTDH knockdown LM2 cells, 20 mg/kg paclitaxel intravenous twice a week, 18 days after initiation of treatment): about 30%
- tumor response in MTDH knockdown tumors ([3]; MTDH knockdown LM2 cells, paclitaxel 20 mg/kg or doxorubicin 5 mg/kg twice a week): tumor regression
- tumor volume relative to volume before treatment ([3]; control LM2 cells, 20 mg/kg paclitaxel intravenous twice a week, 18 days after treatment): 140%
- effect on tumor growth ([3]; control LM2 cells, versus drug vehicle): significantly hampered tumor growth
- chemoresistance on ALDH3A1 overexpression in MTDH knockdown cells [1]: partially restore
- sensitivity of LM2 cells on ALDH3A1 knockdown [1]: more sensitive
- effect of MTDH on drug uptake or retention [2]: does not decrease drug uptake or retention
- kinetics of uptake and retention [2]: biphasic kinetics
